Experimental data: ChEMBL document CHEMBL1147565, “Imidazo[1,2-a]pyridines. Part 2: SAR and optimisation of a potent and selective class of cyclin-dependent kinase inhibitors” (Bioorg Med Chem Lett, 2004)

What was measured:
[1] = molecular target: Cyclin-dependent kinase 2 (Homo sapiens, UniProt P24941); assay: Inhibitory concentration against cyclin-dependent kinase 2
[2] = molecular target: Cyclin-dependent kinase 1 (Homo sapiens, UniProt P06493); assay: Inhibition of Cyclin-dependent kinase 1
Chain of Cyclin-dependent kinase 1 (P06493 whole entry): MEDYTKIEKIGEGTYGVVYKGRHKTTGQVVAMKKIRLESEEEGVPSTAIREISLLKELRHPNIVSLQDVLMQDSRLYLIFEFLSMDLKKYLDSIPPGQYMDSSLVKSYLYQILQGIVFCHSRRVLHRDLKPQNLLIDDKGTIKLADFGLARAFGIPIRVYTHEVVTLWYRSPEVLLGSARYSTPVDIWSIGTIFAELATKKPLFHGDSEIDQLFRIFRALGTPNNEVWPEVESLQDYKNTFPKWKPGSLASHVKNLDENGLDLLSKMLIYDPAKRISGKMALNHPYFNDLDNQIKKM

[3] = system: MCF7; assay: Inhibition of cyclin-dependent kinase phosphorylation of S249-T252 of Rb protein in MCF-7 cells; type: functional, cell-based; details: Homo sapiens
[4] = molecular target: Cyclin-dependent kinase 4 (Homo sapiens, UniProt P11802); assay: Inhibition of Cyclin-dependent kinase 4
Chain of Cyclin-dependent kinase 4 (P11802 whole entry): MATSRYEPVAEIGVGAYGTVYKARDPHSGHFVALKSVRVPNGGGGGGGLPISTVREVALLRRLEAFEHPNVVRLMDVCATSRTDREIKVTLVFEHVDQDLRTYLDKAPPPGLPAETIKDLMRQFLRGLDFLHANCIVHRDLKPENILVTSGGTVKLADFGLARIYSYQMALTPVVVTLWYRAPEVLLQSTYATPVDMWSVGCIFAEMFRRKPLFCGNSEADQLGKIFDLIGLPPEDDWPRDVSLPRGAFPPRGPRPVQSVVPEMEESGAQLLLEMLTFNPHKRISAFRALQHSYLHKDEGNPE

[5] = system: MCF7; assay: Inhibitory activity against BrdU incorporation to MCF-7 cell line following 3 day exposure to compound; type: functional, cell-based; details: Homo sapiens, MCF7, 72 h

IC50 [1] | Structure (SMILES) | other results
680 nM | Clc1cccc(Nc2nccc(-n3cnc4ccccc43)n2)c1 | –
< 3 nM | COCCNS(=O)(=O)c1ccc(Nc2nccc(-c3cnc4ccc(Br)cn34)n2)cc1 | –
< 3 nM | CCSc1ccc2ncc(-c3ccnc(Nc4ccc(S(=O)(=O)NCCOC)cc4)n3)n2c1 | –
< 3 nM | NS(=O)(=O)c1ccc(Nc2nccc(-c3cnc4ccccn34)n2)cc1 | –
< 3 nM | COCCNS(=O)(=O)c1ccc(Nc2ncc(Cl)c(-c3cnc4ccccn34)n2)cc1 | –
< 3 nM | COCCNS(=O)(=O)c1ccc(Nc2ncc(Br)c(-c3cnc4ccccn34)n2)cc1 | –
210 nM | Cc1nc2ccccn2c1-c1ccnc(Nc2ccccc2)n1 | –
< 3 nM | COCCNS(=O)(=O)c1ccc(Nc2nccc(-c3cnc4ccc(C#N)cn34)n2)cc1 | –
16 nM | COCCNS(=O)(=O)c1ccc(Nc2nccc(-c3cnc4ccc(Sc5ccccc5)cn34)n2)cc1 | –
150 nM | Cc1nc2ccccn2c1-c1ccnc(Nc2cccc(Cl)c2)n1 | –
> 10000 nM | COCCNS(=O)(=O)c1ccc(Nc2ncc(Sc3ccccc3)c(-c3cnc4ccccn34)n2)cc1 | –
620 nM | Cc1nc2ccccn2c1-c1ccnc(Nc2ccc(Cl)cc2)n1 | –
5 nM | Clc1cccc(Nc2nccc(-c3cnc4ccccn34)n2)c1 | –
38 nM | Cc1nc2ccccn2c1-c1ccnc(Nc2ccc(S(N)(=O)=O)cc2)n1 | –
8800 nM | Cc1nc2ccccn2c1-c1ccnc(Nc2ccccc2Cl)n1 | –
< 3 nM | c1ccc(Nc2nccc(-c3cnc4ccccn34)n2)cc1 | –

Structure (SMILES) | IC50 [1] | other results
COCCCNS(=O)(=O)c1ccc(Nc2nccc(-c3cnc4ccccn34)n2)cc1 | 4 nM | IC50 [2]: 6 nM; IC50 [3]: 400 nM; IC50 [4]: 3100 nM; IC50 [5]: 600 nM
CN(C)CCCN(C)S(=O)(=O)c1ccc(Nc2nccc(-c3cnc4ccccn34)n2)cc1 | 5 nM | IC50 [5]: 440 nM
CNS(=O)(=O)c1ccc(Nc2nccc(-c3cnc4ccccn34)n2)cc1 | < 3 nM | IC50 [5]: 260 nM
CN(C)CCCNS(=O)(=O)c1ccc(Nc2nccc(-c3cnc4ccccn34)n2)cc1 | < 3 nM | IC50 [5]: 70 nM
COCCNS(=O)(=O)c1ccc(Nc2nccc(-c3cnc4ccccn34)n2)cc1 | 12 nM | IC50 [5]: 390 nM
CN(C)CCNS(=O)(=O)c1ccc(Nc2nccc(-c3cnc4ccccn34)n2)cc1 | 5 nM | IC50 [2]: 15 nM; IC50 [3]: 50 nM; IC50 [4]: 260 nM; IC50 [5]: 70 nM
